Measured values as given in US8889875B2, “Pyridyl derivatives as CFTR modulators” (Vertex Pharmaceuticals Incorporated, priority 2008, dated 2014).

Target: T1, ΔF508-CFTR (Homo sapiens, UniProt P13569, DEL508-508)
T1 construct: expressed in transfected cells
Test: Membrane potential optical assay, identification of correction compounds (single-addition HTS format)
Format: cell-based
Conditions: PercentActivity; ΔF508-CFTR in NIH3T3 mouse fibroblasts; 16-24 hrs with compound; 10 μM forskolin and 20 μM genistein; read-out: BinnedMaxEfficacy
Source text: Membrane Potential Optical Methods for Assaying ΔF508-CFTR Modulation Properties of Compounds.
The assay utilizes fluorescent voltage sensing dyes to measure changes in membrane potential using a fluorescent plate reader (e.g., FLIPR III, Molecular Devices, Inc.) as a readout for increase in functional ΔF508-CFTR in NIH 3T3 cells. The driving force for the response is the creation of a chloride ion gradient in conjunction with channel activation by a single liquid addition step after the cells have previously been treated with compounds and subsequently loaded with a voltage sensing dye.
To identify small molecules that correct the trafficking defect associated with ΔF508-CFTR; a single-addition HTS assay format was developed. Assay Plates containing cells are incubated for ˜2-4 hours in tissue culture incubator at 37° C., 5% CO2, 90% humidity. Cells are then ready for compound exposure after adhering to the bottom of the assay plates.
The cells were incubated in serum-free medium for 16-24 hrs in tissue culture incubator at 37° C., 5% CO2, 90% humidity in the presence or absence (negative control) of test compound. The cells were subsequently rinsed 3× with Krebs Ringers solution and loaded with a voltage sensing redistribution dye. To activate ΔF508-CFTR, 10 μM forskolin and the CFTR potentiator, genistein (20 μM), were added along with Cl^−-free medium to each well. The addition of Cl^−-free medium promoted Cl^− efflux in response to ΔF508-CFTR activation and the resulting membrane depolarization was optically monitored using voltage sensor dyes.
Bath Solution #1: (in mM) NaCl 160, KCl 4.5, CaCl2 2, MgCl2 1, HEPES 10, pH 7.4 with NaOH.
Chloride-free bath solution: Chloride salts in Bath Solution #1 are substituted with gluconate salts.
NIH3T3 mouse fibroblasts stably expressing ΔF508-CFTR are used for optical measurements of membrane potential. The cells are maintained at 37° C. in 5% CO2 and 90% humidity in Dulbecco's modified Eagle's medium supplemented with 2 mM glutamine, 10% fetal bovine serum, 1×NEAA, β-ME, 1×pen/strep, and 25 mM HEPES in 175 cm^2 culture flasks. For all optical assays, the cells were seeded at ˜20,000/well in 384-well matrigel-coated plates and cultured for 2 hrs at 37° C. before culturing at 27° C. for 24 hrs. for the potentiator assay. For the correction assays, the cells are cultured at 27° C. or 37° C. with and without compounds for 16-24 hours.

T1 sequence (P13569 with tags, fused parts or gaps DEL508-508): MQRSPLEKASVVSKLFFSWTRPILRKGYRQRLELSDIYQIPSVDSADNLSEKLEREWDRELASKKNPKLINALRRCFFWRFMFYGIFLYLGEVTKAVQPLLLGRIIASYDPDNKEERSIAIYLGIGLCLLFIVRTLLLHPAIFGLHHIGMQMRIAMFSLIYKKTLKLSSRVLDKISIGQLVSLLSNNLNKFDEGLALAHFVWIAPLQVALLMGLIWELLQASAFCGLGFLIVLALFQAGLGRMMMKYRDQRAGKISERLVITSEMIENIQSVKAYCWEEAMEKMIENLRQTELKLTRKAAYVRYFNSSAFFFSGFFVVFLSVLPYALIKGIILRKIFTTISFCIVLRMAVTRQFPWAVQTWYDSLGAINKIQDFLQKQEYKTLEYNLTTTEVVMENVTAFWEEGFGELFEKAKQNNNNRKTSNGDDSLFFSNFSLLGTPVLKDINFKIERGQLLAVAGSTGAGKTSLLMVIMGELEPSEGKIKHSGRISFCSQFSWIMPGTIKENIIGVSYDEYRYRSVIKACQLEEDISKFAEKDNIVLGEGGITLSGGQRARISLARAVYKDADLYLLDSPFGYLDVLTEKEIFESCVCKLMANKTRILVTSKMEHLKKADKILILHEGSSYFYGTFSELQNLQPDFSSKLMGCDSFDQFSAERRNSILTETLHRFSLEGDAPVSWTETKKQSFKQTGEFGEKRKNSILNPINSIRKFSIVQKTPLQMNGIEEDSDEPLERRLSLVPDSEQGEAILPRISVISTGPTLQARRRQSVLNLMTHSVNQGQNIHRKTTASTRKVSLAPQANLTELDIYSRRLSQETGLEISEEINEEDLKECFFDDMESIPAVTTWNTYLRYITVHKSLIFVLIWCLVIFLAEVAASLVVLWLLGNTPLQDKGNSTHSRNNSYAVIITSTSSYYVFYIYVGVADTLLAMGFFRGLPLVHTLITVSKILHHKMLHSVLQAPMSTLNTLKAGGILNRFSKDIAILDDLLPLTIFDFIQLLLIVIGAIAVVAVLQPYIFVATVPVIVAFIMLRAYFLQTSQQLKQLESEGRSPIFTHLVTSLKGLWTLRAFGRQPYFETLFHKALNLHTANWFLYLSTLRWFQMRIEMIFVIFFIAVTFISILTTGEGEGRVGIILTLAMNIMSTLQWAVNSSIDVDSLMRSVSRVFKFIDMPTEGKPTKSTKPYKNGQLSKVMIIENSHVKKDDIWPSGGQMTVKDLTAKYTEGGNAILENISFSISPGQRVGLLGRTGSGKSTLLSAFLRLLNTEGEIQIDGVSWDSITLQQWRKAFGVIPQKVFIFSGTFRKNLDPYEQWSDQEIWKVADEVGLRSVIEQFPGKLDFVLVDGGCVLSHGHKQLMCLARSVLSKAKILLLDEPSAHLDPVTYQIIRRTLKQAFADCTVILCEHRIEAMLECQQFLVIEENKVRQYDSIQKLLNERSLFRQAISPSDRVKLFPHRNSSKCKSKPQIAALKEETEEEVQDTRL

Structure (SMILES)	Emax [%]
NC(=O)c1ccc(NC(=O)C2(c3ccc4c(c3)OCO4)CC2)nc1 [Compound 6]	25 to 100
CCc1cccc(NC(=O)C2(c3ccccc3)CC2)n1 [Compound 61]	25 to 100
COc1ccccc1C(O)c1ccc(NC(=O)C2(c3ccc4c(c3)OCO4)CC2)nc1 (stereo not shown) [Compound 44]	> 100
COc1ccccc1C(c1ccc(NC(=O)C2(c3ccc4c(c3)OCO4)CC2)nc1)N1CCCC1C(N)=O (stereo not shown) [Compound 45]	> 100

Results, then the compound that gave them:

Emax [%]	Structure (SMILES)
25 to 100	COc1ccccc1Cc1ccc(NC(=O)C2(c3ccc(OC)c(OC)c3)CC2)nc1 [Compound 10]
25 to 100	COc1ccccc1C(=O)c1ccc(NC(=O)C2(c3ccc(OC(F)(F)F)cc3)CC2)nc1 [Compound 30]
> 100	COc1ccc(C2(C(=O)Nc3ccc(C(=O)c4ccccc4OC)cn3)CC2)cc1 [Compound 28]
